Measured values: paper PMC4113456, “Atypical Signaling and Functional Desensitization Response of MAS Receptor to Peptide Ligands” (PLoS ONE, 2014)
Positions count from the first letter of the chain named. Marks after values point to notes of the source that are not given here.

Tests used:
MAS M244A mutant = molecular target: T1, MAS M244A mutant (Homo sapiens, UniProt P04201, M244A); assay: IP1 assay, M244A MAS mutant stable cell line; type: cell-based
T1 construct: expressed in transfected cells
T1 sequence (P04201 1-325 M244A): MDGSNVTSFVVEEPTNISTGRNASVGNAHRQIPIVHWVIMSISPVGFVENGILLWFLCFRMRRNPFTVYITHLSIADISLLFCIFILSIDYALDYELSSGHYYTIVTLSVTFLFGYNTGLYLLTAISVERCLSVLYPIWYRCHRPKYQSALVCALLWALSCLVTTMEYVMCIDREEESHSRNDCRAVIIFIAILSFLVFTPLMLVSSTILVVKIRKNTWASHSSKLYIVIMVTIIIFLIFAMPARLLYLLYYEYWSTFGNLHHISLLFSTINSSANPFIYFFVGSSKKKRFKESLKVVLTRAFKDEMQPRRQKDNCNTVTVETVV
Text: The WT MAS expression construct was synthesized with an N-terminal myc-tag (Figure 1) by GenScript (Piscataway, NJ). The myc-tagged WT MAS from this vector was initially sub-cloned into pcDNA3.1 and later sub-cloned into tetracycline/doxycycline inducible vector pcDNA 5/TO (Life Technologies, Grand Island, NY). Four different ligand binding MAS mutants (F112A, I191A, M244A and T270A) were created using site-directed mutagenesis of WT myc-tagged MAS in pcDNA3.1 or pcDNA 5/TO vector background (Agilent Technologies, Santa Clara, CA). […]
IP1 levels in the cells were measured using the IP-One Tb kit (Cisbio US, Bedford, MA). […] Time-resolved ratiometric fluorescence emission measurements at 665 nm and 620 nm were taken after excitation at 343 nm on FlexStation 3 instrument. […]
(§1) For re-stimulation assays, the data is expressed as the percentage of maximum agonist stimulation to allow for ready comparison between individual experiments. For the IP1 assay, a standard curve was generated using the 4-Parameter logistic equation fit of the HTRF readings of IP1 standards using the SoftMax Pro software. […] In the luciferase assay, the luminescence measurements (RLU) are presented as a ratio of firefly to renilla luciferase activity. […]

MAS T270A mutant = molecular target: T2, MAS T270A mutant (Homo sapiens, UniProt P04201, T270A); assay: IP1 assay, T270A MAS mutant stable cell line; type: cell-based
T2 construct: expressed in transfected cells
T2 sequence (P04201 1-325 T270A): T1 sequence (P04201 1-325 M244A) with A244M, T270A
Text: The WT MAS expression construct was synthesized with an N-terminal myc-tag (Figure 1) by GenScript (Piscataway, NJ). The myc-tagged WT MAS from this vector was initially sub-cloned into pcDNA3.1 and later sub-cloned into tetracycline/doxycycline inducible vector pcDNA 5/TO (Life Technologies, Grand Island, NY). Four different ligand binding MAS mutants (F112A, I191A, M244A and T270A) were created using site-directed mutagenesis of WT myc-tagged MAS in pcDNA3.1 or pcDNA 5/TO vector background (Agilent Technologies, Santa Clara, CA). WT MAS receptor without an epitope tag was constructed by replacing the 5′ portion of the myc-tagged WT MAS in pcDNA 5/TO by untagged MAS sequence from a plasmid construct provided as a gift from Arena Pharmaceuticals, Inc. (San Diego, CA). The sequences of all WT and mutant MAS genes in plasmid constructs were verified by capillary DNA sequencing at the Genomics Core at Lerner Research Institute (Cleveland, OH).
IP1 levels in the cells were measured using the IP-One Tb kit (Cisbio US, Bedford, MA). For the assay, cells were seeded onto a 384-well low volume white cell culture plate at a density of 25,000 cells/well in 20 µl of induction or complete medium. In the IP1 assays the cell density of 25,000 cells/well was consistently maintained to minimize variability between independent experiments. The cells were maintained in a cell culture incubator for 26–28 h. […] Time-resolved ratiometric fluorescence emission measurements at 665 nm and 620 nm were taken after excitation at 343 nm on FlexStation 3 instrument. […]
as §1

MAS [1] = molecular target: T3, MAS (Homo sapiens, UniProt P04201); assay: SRF-RE luciferase reporter assay (Gα12-dependent), induced WT MAS stable cell line; type: cell-based; settings: induced cells
T3 construct: expressed in transfected cells
T3 sequence (P04201 1-325): T1 sequence (P04201 1-325 M244A) with A244M
Protocol: The luciferase assay was performed using pGL4 luciferase reporter vectors and Dual-Glo Luciferase Assay System (Promega, Madison, WI). For this assay, the inducible MAS stable cells were initially plated in a 10 cm plate and left overnight in a cell culture incubator. The following day the cells were transfected with 5 µg of pGL4.34 plasmid containing serum response factor response element (SRF-RE)-firefly luciferase reporter gene and 1 µg of pGL4.73 plasmid containing renilla luciferase (as a transfection efficiency control). […] After 8 h of transfection and induction, the cells were seeded onto a 96-well clear bottom black cell culture plate (pre-coated with poly-L-lysine) at a density of 125,000 cells/well in 100 µl of minimal medium (with reduced serum of 0.5%). The plate was maintained in a cell culture incubator for 18–20 h. At this point 50 µl of media in the cells was replaced with 50 µl of serum free media containing ligands at 2x the desired concentration and incubated for an additional 6 h. Finally, the luciferase activity in the cells was measured according the protocol provided by the manufacturer. The luminescence measurements (RLU) in the cells were obtained on FlexStation 3 instrument.
For re-stimulation assays, the data is expressed as the percentage of maximum agonist stimulation to allow for ready comparison between individual experiments. […] In the luciferase assay, the luminescence measurements (RLU) are presented as a ratio of firefly to renilla luciferase activity. For all the assays, the EC50 and IC50 values were estimated by fitting the data to a three parameter dose response using GraphPad Prism software (GraphPad, La Jolla, CA).

MAS [2] = test system: MAS; design: method as in ref [9] (a number printed in a supplementary file, which may have a reference list of its own: not looked up in the article's list); settings: Rat MAS; ref [9]; read-out: EC50 (IP1 assay); cited from earlier work
untagged WT MAS = molecular target: T4, untagged WT MAS (Homo sapiens, UniProt P04201); assay: Calcium assay, untagged WT MAS inducible HEK293 stable cell line; type: cell-based
T4 construct: expressed in transfected cells
T4 sequence (P04201 1-325): T1 sequence (P04201 1-325 M244A) with A244M
Protocol: The assay was performed using FLIPR Calcium 5 assay kit (Molecular Devices, Sunnyvale, CA). For calcium measurements, cells at a density of 125,000 cells/well in 100 µl medium were seeded onto a 96-well clear bottom black cell culture plate that was pre-coated with poly-L-lysine. In the calcium assays the cell density of 125,000 cells/well was consistently maintained to minimize variability between independent experiments. The cells were seeded in induction media to induce MAS expression or in complete media for negative controls. The plate was maintained in a cell culture incubator for 26–28 h. The cells were then serum starved for 2 h by replacing the medium with 100 µl of serum free DMEM. In the case of pre-treatment with pan-inhibitor of G protein signaling, BIM-46187, the cells were initially serum starved for 1 h by replacing the medium with 50 µl of serum free DMEM. After 1 h, 50 µl of BIM-46187 was added to the cells to a final concentration of 25 µM and treated for another 1 h. Following serum starvation, 100 µl of calcium sensitive dye along with 2x (2.5 mM final concentration) probenecid (Life Technologies, Grand Island, NY) was added to the cells. During this step, AR-inverse agonist or BIM-46187 was also added at desired concentrations to the calcium dye preparation in case of experiments where cells were pre-treated with these inhibitors. The cells were maintained for one hour in the cell culture incubator. Following this, the 96-well plate containing cells loaded with calcium dye and a U-bottom 96-well plate containing ligands at 5x the desired final concentration in D-PBS (1.47 mM KH2PO4, 138 mM NaCl, 2.67 mM KCl, 8.1 mM Na2HPO4, pH 7.3) were allowed to equilibrate for 15 min on a FlexStation 3 instrument (Molecular Devices, Sunnyvale, CA) at 37°C. The plates were further equilibrated on the instrument for 5 min with the lids removed from the plates. The instrument was programmed in FLEX mode to add ligands (50 µl at 5x concentration) to the cells and to monitor the fluorescence before and after adding the ligands. […]

With COc1cc([N+](=O)[O-])ccc1S(=O)(=O)N1CC(CN2CCN(c3ccccn3)CC2)C(c2cccc(F)c2)C1 (centres unmarked) [AR-agonist] the “EC50, IP1 assay” value (MAS M244A mutant) was “cbd”, the “EC50, IP1 assay” value (MAS T270A mutant) was “cbd” and the EC50 (MAS [1]) was 500 ± 100 nM. For the same compound, the EC50 (MAS [2]) was 170 nM and the EC50 (untagged WT MAS; read-out: EC50, calcium flux) was 1200 ± 100 nM.
In the case of C=CCCN1CCC2(CC1)CN(C(=O)c1c(F)cccc1F)c1ccc(Cl)cc12 [AR-inverse], the “IC50, IP1 assay” value (MAS M244A mutant) is reported as “cbd”, the “Fold over WT, IC50 IP1 assay” value (MAS T270A mutant) is reported as 2.5** and the IC50 (MAS T270A mutant) is reported as 1700 ± 30 nM. The IC50 (MAS [1]) was 400 ± 100 nM, the EC50 (MAS [2]) was 348 nM and the IC50 (untagged WT MAS; read-out: IC50, calcium flux) was 500 ± 400 nM.
